Laboratory results from ChEMBL document CHEMBL1141430, “Alkaloids with human delta-opioid receptor binding affinity from the Australian rainforest tree Peripentadenia mearsii” (J Nat Prod, 2007).
pIC50: −log10 of the molar value. Activity calls are given as the source filed them. No cut-off for these calls is given here.

Assays:
[1] = target: T1, Delta-type opioid receptor (Homo sapiens, UniProt P41143); experiment: biochemical
[2] = target: T1, Delta-type opioid receptor; experiment: Displacement of [125I]deltorphin 2 from human recombinant delta opioid receptor expressed in HEK cells at 100 uM; format: cell-based; conditions: HEK293

T1 sequence (P41143 whole entry): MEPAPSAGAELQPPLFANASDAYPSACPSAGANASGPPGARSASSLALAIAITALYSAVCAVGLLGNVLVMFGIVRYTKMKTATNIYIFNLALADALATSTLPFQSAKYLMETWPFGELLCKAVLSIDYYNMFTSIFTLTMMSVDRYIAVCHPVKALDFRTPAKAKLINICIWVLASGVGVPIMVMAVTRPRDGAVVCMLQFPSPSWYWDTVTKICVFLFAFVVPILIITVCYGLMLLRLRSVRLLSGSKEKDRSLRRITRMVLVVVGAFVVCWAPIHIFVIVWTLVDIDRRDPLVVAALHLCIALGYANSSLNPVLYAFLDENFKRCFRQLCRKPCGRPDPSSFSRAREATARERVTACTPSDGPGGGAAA

pIC50 [1] | Activity [2] | Compound
4.94 | – | CCCCCC(=O)NCCCN1CCCC1CC(=O)c1c(C)cccc1O (stereo not drawn) [PERIPENTADENINE]
– | inactive | CCCCCC(=O)NCCC[N+]12CCC[C@@H]1CC1=C(C(=O)CC(C)O1)[C@H]2C (stereo partly drawn)
4.51 | – | CCCCCC(=O)NCCCN1CCC[C@H]1CC(=O)O [PERIPENTONINE C]
